# Reference: US12150942B2, “Cerdulatinib for treating myeloma” (Alexion Pharmaceuticals, Inc., priority 2015, dated 2024)
# Entries after “also recorded” stand apart in the source; their conditions may differ.
# Key:
# [1] = tested on: multiple myeloma cell lines (LP1, OPM2, MOLP1, RPMI8226, U266B1, NCIH929); test: Cell proliferation (EdU as indicator) in multiple myeloma cell lines; assay type: cell-based; details: FGFR3 positive and FGFR3 negative MM cell lines
# Protocol: (§1) Six multiple myeloma cell lines were tested in this example for the expression level of p90RSK. The cell lines included LP1, OPM2, MOLP1, RPMI8226, U266B1, and NCIH929. Beta-actin was used as control, and the expression levels of FGF receptor 3 (FGFR3), phospho-S380 RSK. and RSK1/RSK2/RSK3 were also measured.
# (§2) Cerdulatinib was tested with same cell lines as used in Example 1. […] Also like BI-D1870, there was no relationship between the activity of cerdulatinib and the status of FGFR3.
# [2] = tested on: multiple myeloma cell lines (LP1, OPM2, MOLP1, RPMI8226, U266B1, NCIH929); test: Caspase3 activation (apoptosis) in multiple myeloma cell lines; assay type: cell-based; details: FGFR3 positive and FGFR3 negative MM cell lines; BI-D1870 at 1.2 μM, 2.5 μM, 5 μM
# Protocol: as §1
# A p90RSK inhibitor, BI-D1870 (see, e.g., Sapkota et al., Biochem J. 2007, 401(Pt 1): 29-38), was added to the medium for each cell line at three difference concentrations. 1.2 μM, 2.5 μM, and 5 μM.
# as §2
# [3] = tested on: patients with CLL/SLL or B cell NHL; test: Safety in 3+3 dose escalation study; assay type: in vivo, human
# Protocol: (§3) Methods: This experiment was a 3+3 dose escalation study with 28-day cycles and doses studied ranging from 15 mg to 100 mg QD, and up to 45 mg BID. PK, PD, and safety were monitored. Clinical response was assessed by standard criteria. The level of inhibition of SYK and JAK was determined by multiple whole blood assays measuring signaling via BCR, IL2, IL4, IL6, and GM-CSF. Serum markers of tumor burden-CCL3, CCL4, and other markers of inflammation-B2M, CRP, were also measured.
# (§4) Results: As of Jan. 7, 2016, 41 patients (pt) with CLL/SLL or B cell NHL were dosed. Median age was 67 years (range 23-85) and median prior therapies (tx) was 3 (range 1-8). […] The patient with grade 3 AST had tumor progression to the liver. The pancreatitis at 45 mg BID was considered at DLT and the cohort is expanding to approximately 6 patients.
# [4] = tested on: patients with CLL/SLL or B cell NHL; test: Clinical response by standard criteria in dose escalation study; assay type: in vivo, human; details: 28-day cycles
# Protocol: as §3, §4
# [5] = tested on: serum markers of inflammation (B2M, CRP); test: Serum markers of inflammation in dosed patients; assay type: in vivo, human; details: once daily 40-100 mg
# Protocol: as §3
# [6] = Pharmacokinetics in 3+3 dose escalation study; assay type: in vivo, human
# Protocol: as §3
# SYK and JAK signaling = test: Whole blood assays of SYK and JAK signaling (BCR, IL2, IL4, IL6, GM-CSF); assay type: in vivo, human; details: 45 mg BID; steady-state Cmin; peripheral blood assays
# Protocol: as §3
# [7] = tested on: AML (Acute Myeloid Leukemia) cell lines; test: Cytotoxicity in AML cell lines; assay type: cell-based; details: four different AML cell lines; compared with Ruxolitinib and Comp A
# Protocol: The cytotoxicity of cerdulatinib in AML (Acute Myeloid Leukemia) was tested in four different cell lines.
# [8] = tested on: DLBCL, MCL, Burkitt's lymphoma, ALL, MM and AML cells; test: Cytotoxicity (IC50) across cancer types; assay type: cell-based
# Excerpt: The cytotoxicity of cerdulatinib was also compared to Comp A in other types of cancer cells.
steady-state Cmin ([6]; 45 mg BID),"average steady state Cmin ([6]; 40-100 mg dose range, once daily) [nM]","Cmax ([6]; human, in vivo, 40-100 mg dose range, once daily, read-out: average steady state Cmax) [nM]","half-life ([6]; human, in vivo, patients, once daily dosing) [h]",SMILES,inhibition of cell proliferation (EdU as indicator) [1],activation of Caspase3 expression (indicator of apoptosis) [2],"tolerability ([3]; 15 mg to 100 mg QD, up to 45 mg BID, 41 patients)",treatment emergent AEs of ≥ grade 3 deemed related to study drug ([3]; 30 mg),treatment emergent AEs of ≥ grade 3 deemed related to study drug ([3]; 45 mg),"treatment emergent AEs of ≥ grade 3 deemed related to study drug ([3]; 45 mg BID, considered DLT)",treatment emergent AEs of ≥ grade 3 deemed related to study drug ([3]; 50 mg),treatment emergent AEs of ≥ grade 3 deemed related to study drug ([3]; 65 mg),treatment emergent AEs of ≥ grade 3 deemed related to study drug ([3]; 100 mg),time at which responses occurred [4],inhibition of serum markers of inflammation [5],change in systemic exposure ([6]; 45 mg BID relative to previous dose levels),solubility / dissolution ([6]; inferred from plateau of exposure over 40-100 mg),inhibition of SYK and JAK (SYK and JAK signaling),cytotoxicity in AML cells [7],IC50 (cytotoxicity) compared to Comp A [8]
,,,,"CC(C)CCN1c2nc(Nc3cc(F)c(O)c(F)c3)ncc2N(C)C(=O)C1C (stereo not shown) [BI-D1870, reference compound]",dose-dependently inhibited cell proliferation,dose-dependently activated the expression of Caspase3,,,,,,,,,,,,,,
approximately 1.5 μM,700 ± 200,1380,12 to 16,"CCS(=O)(=O)N1CCN(c2ccc(Nc3ncc(C(N)=O)c(NC4CC4)n3)cc2)CC1 [cerdulatinib, 4-(cyclopropylamino)-2-(4-(4-(ethylsulfonyl)piperazin-1-yl)phenylamino)pyrimidine-5-carboxamide]",dose-dependently inhibited cell proliferation,activated apoptosis; also recorded: dose-dependently activated caspase3 expression,well tolerated,"neutropenia (n=2), anemia (n=1), and pneumocystis pneumonia (grade 5, n=1)","anemia, AST increase, hypotension, thrombocytopenia (n=1 for each), and fatigue (n=2)",pancreatitis (n=1),"anemia, neutropenia, abdominal pain, pneumonia, and fatigue (n=1 for each)",diarrhea and fatigue (n=1 for each),nausea (n=1),2 cycles of tx,Significant inhibition,approximate doubling in exposure; also recorded: doubled,low pH solubility appeared to limit dissolution,complete inhibition,"more active than Ruxolitinib, a JAK inhibitor, and Comp A; also recorded: active in killing AML cells",more potent than Comp A
